Data set [1] relates to caterpillars of the armyworm (Spodoptera frugiperda). As to the kind of experiment: Spodoptera frugiperda test (spray treatment). It is filed as in vivo. Conditions: maize leaf discs, application rate 500 g/ha. Here is the method:
Example J Spodoptera Frugiperda Test (Spray Treatment) [table] To produce a suitable preparation of active compound, 1 part by weight of active compound is mixed with the stated amounts of solvent and emulsifier, and the concentrate is diluted with emulsifier-containing water to the desired concentration. Discs of maize leaves (Zea mays) are sprayed with an active compound preparation of the desired concentration and, after drying, populated with caterpillars of the armyworm (Spodoptera frugiperda). After the desired period of time, the effect in % is determined. 100% means that all caterpillars have been killed; 0% means that none of the caterpillars have been killed.

Data set [2] is described as follows: log P by HPLC on reversed-phase columns (C 18), EEC directive 79/831 Annex V.A8. Format: physicochemical. Conditions: pH 2.7. Here is the method:
The log P values were measured according to EEC directive 79/831 Annex V.A8 by HPLC (High Performance Liquid Chromatography) on reversed-phase columns (C 18), using the method below:
The determination was carried out in the acidic range at pH 2.7 using the mobile phases 0.1% aqueous formic acid and acetonitrile; linear gradient from 10% acetonitrile to 95% acetonitrile.

The next data set concerns Alternaria solani. As to the kind of experiment: Alternaria test (tomato)/protective. Format: in vivo. The note with it: protective, 500 ppm active compound, evaluation 7 days after inoculation. Here is the method: Alternaria Test (Tomato)/Protective [table] To produce a suitable preparation of active compound, 1 part by weight of active compound is mixed with the stated amounts of solvent and emulsifier, and the concentrate is diluted with water to the desired concentration. To test for protective activity, young tomato plants are sprayed with the active compound preparation at the stated application rate. 1 day after the treatment, the plants are inoculated with a spore suspension of Alternaria solani and then remain at 100% relative humidity and 20° C. for 24 h. The plants then remain at 96% relative atmospheric humidity and a temperature of 20° C.

For a further data set, the system named is Phytophthora infestans. It is filed as in vivo. Conditions: protective, 100 ppm active compound, evaluation 3 days after inoculation.
The test system of data set [3] is Blumeria graminis f sp. tritici. The experiment in a line: Blumeria test (wheat)/protective. Conditions: protective, 1000 ppm active compound, evaluation 7 days after inoculation. It is filed as in vivo. Here is the method:
Blumeria Test (Wheat)/Protective [table] To produce a suitable preparation of active compound, 1 part by weight of active compound is mixed with the stated amounts of solvent and emulsifier, and the concentrate is diluted with water to the desired concentration. To test for protective activity, young plants are sprayed with the active compound preparation at the stated application rate. After the spray coating has dried on, the plants are dusted with spores of Blumeria graminis f sp. tritici.

The next data set has as its system Plasmopara viticola. As to the kind of experiment: Plasmopara test (grapevine)/protective. It is filed as in vivo. The note with it: protective, 100 ppm active compound, evaluation 6 days after inoculation. Here is the method: Plasmopara Test (Grapevine)/Protective [table] To produce a suitable preparation of active compound, 1 part by weight of active compound is mixed with the stated amounts of solvent and emulsifier, and the concentrate is diluted with water to the desired concentration. To test for protective activity, young plants are sprayed with the active compound preparation at the stated application rate. After the spray coating has dried on, the plants are inoculated with an aqueous spore suspension of Plasmopara viticola and then remain in an incubation cabin at about 20° C. and 100% relative atmospheric humidity for 1 day. The plants are then placed in a greenhouse at about 21° C. and about 90% atmospheric humidity for 4 days. The plants are then moistened and placed in an incubation cabin for 1 day.

In a further data set the test system is Venturia inaegualis. The experiment in a line: Venturia test (apple)/protective. It is filed as in vivo. Conditions: protective, 100 ppm active compound, evaluation 10 days after inoculation. Here is the method: Venturia Test (Apple)/Protective [table] To produce a suitable preparation of active compound, 1 part by weight of active compound is mixed with the stated amounts of solvent and emulsifier, and the concentrate is diluted with water to the desired concentration. To test for protective activity, young plants are sprayed with the active compound preparation at the stated application rate. After the spray coating has dried on, the plants are inoculated with an aqueous conidia suspension of the apple scab pathogen Venturia inaegualis and then remain in an incubation cabin at about […] and 100% relative atmospheric humidity for 1 day. The plants are then placed in the greenhouse at about 21° C. and a relative atmospheric humidity of about 90%.

What is called log P is a log measure of how a compound divides between an organic and an aqueous phase. Low values mean lower lipophilicity, high ones higher lipophilicity.

For the compound `COc1ccc(C2=NOC(=O)C2=Cc2ccc(C)s2)cc1` [U-9], the “activity (caterpillars killed)” value in data set [1] is 80%. The log partition coefficient (log P) in data set [2] worked out at 3.28.
Consider `O=C1ON=C(c2ccccc2)C1=Cc1cccs1` [U-1], for which, in data set [1], the “activity (caterpillars killed)” value stood at 80%.
Regarding `COc1ccc(C2=NOC(=O)C2=Cc2cccs2)cc1` [U-37], the “activity (caterpillars killed)” value in data set [1] was determined as 80%. For the same compound, the lipophilicity (log P) in data set [2] is given as 2.95.
For the compound `Cc1ccc(C2=NOC(=O)C2=Cc2cccs2)cc1` [U-2], in data set [1], the “activity (caterpillars killed)” value is on record as 80%. In addition, in data set [2], the “log P” value amounted to 3.32.
Consider `Cc1ccc(C=C2C(=O)ON=C2c2ccc(F)cc2)s1` [I-33], for which the “activity (caterpillars killed)” value in data set [1] is recorded as 80%. The “log P” value in data set [2] is listed as 3.34.
As to `CC1=NOC(=O)/C1=C\c1ccco1` [A-8], the efficacy was 0% in the data set on Alternaria solani; 0% with Phytophthora infestans; 29% in data set [3]; 28% in the data set with Plasmopara viticola; 6% in the data set with Venturia inaegualis.
As for `O=C1ON=C(c2ccc(Cl)cc2)C1=Cc1cccs1` [I-5], the “activity (caterpillars killed)” value in data set [1] was 80%. Besides, the “log P” value in data set [2] worked out at 3.44.
The matching figures for `O=C1ON=C(c2ccc(F)cc2)C1=Cc1cc(Br)cs1` [I-30]: 80% and 3.76.
For the compound `COc1cccc(C2=NOC(=O)C2=Cc2ccc(C)s2)c1` [U-12], in data set [1], the “activity (caterpillars killed)” value was 80%. In addition, the “log P” value in data set [2] came to 3.34.
In the case of `O=C1ON=C(c2ccc(OC(F)(F)F)cc2)C1=Cc1cccs1` [I-55], the “activity (caterpillars killed)” value in data set [1] was 80%. Further, the “log P” value in data set [2] was determined as 3.80.
In the case of `COc1ccc(C2=NOC(=O)C2=Cc2ccc(Cl)s2)cc1` [I-43], in data set [1], the “activity (caterpillars killed)” value was 80%. In addition, in data set [2], the log partition coefficient (log P) came out at 3.70.
In the same order, the values of `COc1ccc(C2=NOC(=O)/C2=C\c2cccs2)cc1` [U-38] are 80% and 2.95.
As to `Cc1ccc(C2=NOC(=O)C2=Cc2ccc(C)s2)cc1` [U-10], the “activity (caterpillars killed)” value in data set [1] is 80%. For the same compound, the log partition coefficient (log P) in data set [2] is 3.67.
The matching figures for `Cc1ccsc1C=C1C(=O)ON=C1c1ccc(F)cc1` [I-32]: 80% and 3.26.
On to `CC(C)Oc1ccc(C2=NOC(=O)C2=Cc2cccs2)cc1` [I-79], for which the “activity (caterpillars killed)” value in data set [1] is recorded as 80%. The “log P” value in data set [2] turned out to be 3.73.
For `CCOc1ccc(C2=NOC(=O)C2=Cc2cccs2)cc1` [I-58], the “activity (caterpillars killed)” value in data set [1] amounted to 80%. In addition, the “log P” value in data set [2] is given as 3.41.
Turning to `COc1ccccc1C1=NOC(=O)/C1=C\c1cccs1` [U-39], the “activity (caterpillars killed)” value in data set [1] stood at 80%. Also, in data set [2], the “log P” value was determined as 2.75.
In the same order, the values of `O=C1ON=C(c2ccc(C(F)(F)F)cc2)C1=Cc1cccs1` [I-56] are 80% and 3.68.
`CC(C)(C)c1ccc(C2=NOC(=O)C2=Cc2cccs2)cc1` [I-29]: in data set [1], the “activity (caterpillars killed)” value turned out to be 80%. The “log P” value in data set [2] is reported as 4.39.
Regarding `Cc1ccsc1C=C1C(=O)ON=C1c1c(F)cccc1F` [I-73], the “log P” value in data set [2] stood at 3.17.
For the compound `O=C1ON=C(c2cccc(F)c2)C1=Cc1ccc([N+](=O)[O-])s1` [I-101], in data set [2], the “log P” value is 3.41.
Regarding `Cc1ccc(C=C2C(=O)ON=C2c2c(F)cccc2F)s1` [I-78], in data set [2], the lipophilicity (log P) is recorded as 3.25.
Consider `O=C1ON=C(c2ccc(OC(F)(F)F)cc2)C1=Cc1ccc(Cl)s1` [I-36], for which the log partition coefficient (log P) in data set [2] came to 4.42.
As to `COc1ccc(C2=NOC(=O)C2=Cc2sccc2C)c(OC)c1` [U-27], the log partition coefficient (log P) in data set [2] is 2.81.
Take `CC(C)(C)c1ccc(C2=NOC(=O)C2=Cc2ccc(Cl)s2)cc1` [I-40]: the “log P” value in data set [2] turned out to be 5.08.
Regarding `O=C1ON=C(c2ccc(F)cc2)C1=Cc1ccc(Cl)s1` [I-41], the “log P” value in data set [2] came to 3.72.
For `COc1cc(OC)cc(C2=NOC(=O)C2=Cc2cccs2)c1` [U-21], the log partition coefficient (log P) in data set [2] is 3.20.
Take `O=C1ON=C(c2ccc(Cl)cc2)C1=Cc1sccc1Br` [I-61]: the lipophilicity (log P) in data set [2] came to 4.23.
As for `O=C1ON=C(c2c(F)cccc2F)C1=Cc1cc(-c2ccccc2)cs1` [I-70], the log partition coefficient (log P) in data set [2] is 4.16.

(Values after US20120100989A1, “3-Aryl-4-(2-thienylmethylene)isoxazol-5(4H)-ones as Fungicides” (Bayer CropScience AG, priority 2010, published 2012).)
